Assay results as given in ChEMBL document CHEMBL6177993, “De Novo 3-(Phenylcarbamoyl) Benzoate Analogues: Efficacy against Multidrug-Resistant S. aureus and Elucidation of the Biodistribution Profile” (J Med Chem, 2025).
In brackets after ≈: the same amount, converted by molar mass. Activity calls are given as the source filed them. The rule behind the calls is not given here.

Key:
[1] = system: Staphylococcus aureus; assay: Induction of morphological changes in Staphylococcus aureus ATCC 29213 assessed as accumulation of cellular debris at 2 to 10 times MIC measured after 4 hrs by Scanning electron microscopy based analysis; type: functional, organism-based
[2] = system: Staphylococcus aureus; assay: Inhibition of biofilm in Staphylococcus aureus ATCC 29213 at 2 times MIC measured after 12 hrs by crystal violet staining based analysis relative to control; type: functional
[3] = system: Klebsiella pneumoniae; assay: Antibacterial activity against Klebsiella pneumoniae BAA 1705 assessed as reduction in bacterial growth measured after 18 to 24 hrs by broth microdilution method; type: functional; conditions: time 18-24 hrs
[4] = Solubility of the compound in distilled water; type: physicochemical; conditions: buffer
[5] = system: Acinetobacter baumannii; assay: Antibacterial activity against Acinetobacter baumannii BAA 1605 assessed as reduction in bacterial growth measured after 18 to 24 hrs by broth microdilution method; type: functional; conditions: time 18-24 hrs
[6] = system: Staphylococcus aureus; assay: Antibacterial activity against methicillin-resistant Staphylococcus aureus NRS 186 assessed as reduction in bacterial growth measured after 18 to 24 hrs by broth microdilution method; type: functional; conditions: time 18-24 hrs
[7] = system: Bacillus subtilis; assay: Antibacterial activity against Bacillus subtilis IITKSM1 assessed as reduction in bacterial growth measured after 18 to 24 hrs by broth microdilution method; type: functional; conditions: time 18-24 hrs
[8] = Binding affinity to Staphylococcus aureus MurA assessed as inhibition constant
[9] = system: Escherichia coli; assay: Antibacterial activity against Escherichia coli ATCC 25922 assessed as reduction in bacterial growth measured after 18 to 24 hrs by broth microdilution method; type: functional; conditions: time 18-24 hrs
[10] = system: Cell membrane; assay: Disruption of cell membrane in Staphylococcus aureus ATCC 29213 assessed as increase in red fluorescence at 5 to 10 times MIC measured after 4 hrs by DAPI and PI staining based fluorescence microscopic analysis
[11] = system: Staphylococcus aureus; assay: Antibacterial activity against methicillin-resistant Staphylococcus aureus NRS 129 assessed as reduction in bacterial growth measured after 18 to 24 hrs by broth microdilution method; type: functional; conditions: time 18-24 hrs
[12] = Binding affinity to Staphylococcus aureus MurZ assessed as inhibition constant
[13] = system: Staphylococcus aureus; assay: Induction of morphological changes in Staphylococcus aureus ATCC 29213 assessed as cell shrinkage by measuring cells height at 10 times MIC measured after 4 hrs by atomic force microscopy based analysis (reference value: 170.8 nanometer); type: functional
[14] = system: Staphylococcus aureus; assay: Antibacterial activity against methicillin-resistant Staphylococcus aureus NRS 193 assessed as reduction in bacterial growth measured after 18 to 24 hrs by broth microdilution method; type: functional; conditions: time 18-24 hrs
[15] = system: HEK293; assay: Cytotoxicity against HEK293 cells assessed as cell viability at 1 times MIC measured after 24 hrs by Calcein-AM/PI staining based fluorescence microscopy analysis; type: toxicity; conditions: human, hek293, 24 h
[16] = system: Pseudomonas aeruginosa; assay: Antibacterial activity against Pseudomonas aeruginosa ATCC 27853 assessed as reduction in bacterial growth measured after 18 to 24 hrs by broth microdilution method; type: functional; conditions: time 18-24 hrs
[17] = system: Staphylococcus aureus; assay: Synergistic antibacterial activity against Staphylococcus aureus ATCC 29213 assessed as fractional inhibitory concentration index in presence of levofloxacin by checkerboard assay; type: functional
[18] = Hemolytic activity in human Red blood cell at 32 ug/ml measured after 1 hrs by spectrophotometric analysis relative to control; type: toxicity, cell-based, Erythrocyte; conditions: red blood cells, at 32 µg/mL, read-out: Activity
[19] = system: Staphylococcus aureus; assay: Induction of morphological changes in Staphylococcus aureus ATCC 29213 assessed as cell deformation at 2 to 10 times MIC measured after 4 hrs by Scanning electron microscopy based analysis; type: functional, organism-based
[20] = system: Cell membrane; assay: Disruption of cell membrane in Staphylococcus aureus ATCC 29213 assessed as increase in PI uptake at 10 times MIC measured after 8 mins by fluorescence based microplate reader analysis
[21] = Solubility of the compound in DMSO/DMF; type: physicochemical
[22] = system: Staphylococcus aureus; assay: Antibacterial activity against methicillin-resistant Staphylococcus aureus NRS 119 assessed as reduction in bacterial growth measured after 18 to 24 hrs by broth microdilution method; type: functional; conditions: time 18-24 hrs
[23] = system: Staphylococcus aureus; assay: Antibacterial activity against Staphylococcus aureus ATCC 29213 assessed as reduction in bacterial growth measured after 18 to 24 hrs by broth microdilution method; type: functional; conditions: time 18-24 hrs
[24] = system: Staphylococcus aureus; assay: Antibacterial activity against Staphylococcus aureus ATCC 29213 measured after 20 passages; type: functional, organism-based
[25] = system: Staphylococcus aureus; assay: Induction of morphological changes in Staphylococcus aureus ATCC 29213 assessed as leakage of subcellular components at 2 to 10 times MIC measured after 4 hrs by Scanning electron microscopy based analysis; type: functional, organism-based
[26] = system: Staphylococcus aureus; assay: Inhibition of biofilm in Staphylococcus aureus ATCC 29213 at 0.5 times MIC measured after 12 hrs by crystal violet staining based analysis relative to control; type: functional
[27] = system: Staphylococcus aureus; assay: Antibacterial activity against methicillin-resistant Staphylococcus aureus NRS 194 assessed as reduction in bacterial growth measured after 18 to 24 hrs by broth microdilution method; type: functional; conditions: time 18-24 hrs
[28] = system: Staphylococcus aureus; assay: Antibacterial activity against vacomycin-resistant Staphylococcus aureus VRS 12 assessed as reduction in bacterial growth measured after 18 to 24 hrs by broth microdilution method; type: functional; conditions: time 18-24 hrs
[29] = system: Staphylococcus aureus; assay: Antibacterial activity against methicillin-resistant Staphylococcus aureus NRS 191 assessed as reduction in bacterial growth measured after 18 to 24 hrs by broth microdilution method; type: functional; conditions: time 18-24 hrs
[30] = target: T1, UDP-N-acetylenolpyruvoylglucosamine reductase (Staphylococcus aureus, UniProt P61431); assay: Binding affinity to Staphylococcus aureus MurB assessed as inhibition constant
T1 sequence (P61431 whole entry): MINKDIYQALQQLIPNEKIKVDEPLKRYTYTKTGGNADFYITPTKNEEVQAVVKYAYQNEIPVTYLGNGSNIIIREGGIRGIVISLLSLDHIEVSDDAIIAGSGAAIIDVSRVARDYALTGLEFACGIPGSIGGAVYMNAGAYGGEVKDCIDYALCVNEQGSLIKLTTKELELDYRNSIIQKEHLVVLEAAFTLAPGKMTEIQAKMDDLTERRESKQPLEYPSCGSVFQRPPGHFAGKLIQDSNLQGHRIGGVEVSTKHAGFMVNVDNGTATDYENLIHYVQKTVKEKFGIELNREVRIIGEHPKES

[31] = system: Staphylococcus aureus; assay: Induction of morphological changes in Staphylococcus aureus ATCC 29213 assessed as cell shrinkage at 10 times MIC measured after 4 hrs by atomic force microscopy based analysis (reference value: 60.170 nanometer); type: functional
[32] = system: Staphylococcus aureus; assay: Antibacterial activity against methicillin-resistant Staphylococcus aureus NRS 100 assessed as reduction in bacterial growth measured after 18 to 24 hrs by broth microdilution method; type: functional; conditions: time 18-24 hrs
[33] = system: Staphylococcus aureus; assay: Antibacterial activity against methicillin-resistant Staphylococcus aureus NRS 192 assessed as reduction in bacterial growth measured after 18 to 24 hrs by broth microdilution method; type: functional; conditions: time 18-24 hrs
[34] = system: HEK293; assay: Cytotoxicity against HEK293 cells assessed as cell viability measured after 72 hrs by MTT assay; type: toxicity, cell-based; conditions: human, hek293, 72 h
[35] = system: Staphylococcus aureus; assay: Antibacterial activity against methicillin-sensitive Staphylococcus aureus ATCC 29213 assessed as reduction in bacterial growth measured after 18 to 24 hrs by broth microdilution method; type: functional; conditions: time 18-24 hrs
[36] = system: Staphylococcus aureus; assay: Antibacterial activity against vacomycin-resistant Staphylococcus aureus VRS 1 assessed as reduction in bacterial growth measured after 18 to 24 hrs by broth microdilution method; type: functional; conditions: time 18-24 hrs
[37] = system: Staphylococcus aureus; assay: Synergistic antibacterial activity against Staphylococcus aureus ATCC 29213 assessed as fractional inhibitory concentration index in presence of vancomycin by checkerboard assay; type: functional
[38] = system: Staphylococcus aureus; assay: Antibacterial activity against methicillin-resistant Staphylococcus aureus NRS 198 assessed as reduction in bacterial growth measured after 18 to 24 hrs by broth microdilution method; type: functional; conditions: time 18-24 hrs
[39] = system: Staphylococcus aureus; assay: Inhibition of biofilm in Staphylococcus aureus ATCC 29213 at 1 times MIC measured after 12 hrs by crystal violet staining based analysis relative to control; type: functional
[40] = system: Staphylococcus aureus; assay: Inhibition of biofilm in Staphylococcus aureus ATCC 29213 at 2 ug/ml measured after 12 hrs by crystal violet staining based analysis; type: functional, organism-based; conditions: dose 2.0 µg/ml
[41] = system: Staphylococcus aureus; assay: Induction of morphological changes in Staphylococcus aureus ATCC 29213 assessed as cell shrinkage at 2 to 10 times MIC measured after 4 hrs by Scanning electron microscopy based analysis; type: functional, organism-based
[42] = system: Staphylococcus aureus; assay: Induction of morphological changes in Staphylococcus aureus ATCC 29213 assessed as cell shrinkage by measuring cells diameter at 10 times MIC measured after 4 hrs by atomic force microscopy based analysis (reference value: 1.017 micrometer); type: functional
[43] = system: Staphylococcus aureus; assay: Induction of morphological changes in Staphylococcus aureus ATCC 29213 assessed as appearance of cell surface fold at 2 to 10 times MIC measured after 4 hrs by Scanning electron microscopy based analysis; type: functional, organism-based
[44] = system: Enterococcus faecalis; assay: Antibacterial activity against Enterococcus faecalis ATCC 35550 assessed as reduction in bacterial growth measured after 18 to 24 hrs by broth microdilution method; type: functional; conditions: time 18-24 hrs
[45] = system: Staphylococcus aureus; assay: Antibacterial activity against vacomycin-resistant Staphylococcus aureus VRS 4 assessed as reduction in bacterial growth measured after 18 to 24 hrs by broth microdilution method; type: functional; conditions: time 18-24 hrs
[46] = system: Staphylococcus aureus; assay: Drug resistance, ratio of MIC for Staphylococcus aureus ATCC 29213 after 20 passages exposure to MIC for Staphylococcus aureus ATCC 29213 during first exposure; type: functional

CC(C)(C)c1cc(C(c2ccccc2)c2ccccc2)c(NC(=O)c2cccc(C(=O)O)c2)c(C(c2ccccc2)c2ccccc2)c1
Activity [1]: Active
inhibition (INH) [2]: 95%
MIC [3]: > 64 µg/mL
solubility [4]: Insoluble
MIC [5]: > 64 µg/mL
MIC [6]: 4 µg/mL (≈ 0.00635 mM)
MIC [7]: 1 µg/mL (≈ 0.00159 mM)
Ki [8]: 117 µM
MIC [9]: > 64 µg/mL
Activity [10]: Active
MIC [11]: 4 µg/mL (≈ 0.00635 mM)
Ki [12]: 133 µM
Activity [13]: 105.1 nm
MIC [14]: 4 µg/mL (≈ 0.00635 mM)
Activity [15]: Toxic
MIC [16]: > 64 µg/mL
fractional inhibitory concentration index (FICI) [17]: 0.75
hemolysis at 1 h, 32 ug/ml [18]: ~25%
Activity [19]: Active
Activity [20]: Active
solubility [21]: 660 mg/mL (≈ 1050 mM)
MIC [22]: 4 µg/mL (≈ 0.00635 mM)
MIC [23]: 2 µg/mL (≈ 0.00318 mM)
Activity [24]: Active
Activity [25]: Active
inhibition (INH) [26]: >50%
MIC [27]: 4 µg/mL (≈ 0.00635 mM)
MIC [28]: 4 µg/mL (≈ 0.00635 mM)
MIC [29]: 4 µg/mL (≈ 0.00635 mM)
Ki [30]: 2520 nM
Activity [31]: 53.464 nm
MIC [32]: 4 µg/mL (≈ 0.00635 mM)
MIC [33]: 4 µg/mL (≈ 0.00635 mM)
Activity [34]: Toxic
MIC [35]: 4 µg/mL (≈ 0.00635 mM)
MIC [36]: 4 µg/mL (≈ 0.00635 mM)
fractional inhibitory concentration index (FICI) [37]: 0.258
MIC [38]: 4 µg/mL (≈ 0.00635 mM)
inhibition (INH) [39]: 95%
inhibition [40]: Active
Activity [41]: Active
Activity [42]: 0.68 um
Activity [43]: Active
MIC [44]: 1 µg/mL (≈ 0.00159 mM)
MIC [45]: 4 µg/mL (≈ 0.00635 mM)

CCn1cc(C(=O)O)c(=O)c2cc(F)c(N3CCNCC3)cc21 [NORFLOXACIN]
Ratio [46]: 64
